Measured values reported in PMC7577153, “Identification of Small-Molecule Inhibitors Targeting Porphyromonas gingivalis Interspecies Adherence and Determination of Their In Vitro and In Vivo Efficacies” (Antimicrobial Agents and Chemotherapy, 2020).
Read-outs that look alike come from different tables or passages of the source. Marks after values point to notes of the source that are not given here.

Experiments:
P. gingivalis virulence = experiment: murine model of periodontitis (alveolar bone loss); format: in vivo, BALB/c/ByJ mice; details: for alveolar bone loss relative to sham-infected mice / alveolar bone loss versus infected untreated mice: mice infected with S. gordonii and P. gingivalis, compound 40 μM; for alveolar bone loss versus infected untreated mice: P < 0.001
Description: The in vivo activity of compounds N7, N17, and V8 was determined using a murine model of periodontitis as described by Deap et al. ([16]). […] Therefore, P. gingivalis virulence was assessed by alveolar bone loss, which was determined by measuring the distance from the alveolar bone crest (ABC) to the cemento enamel junction (CEJ).
The protocol used in this study (protocol 16486) was approved by the Institutional Animal Care and Use Committee at the University of Louisville under federal guidelines for the use and care of laboratory animals. Ten-week-old BALB/c/ByJ specific-pathogen-free mice were obtained from Jackson Laboratory (Bar Harbor, ME) and housed in the University of Louisville Research Resource Center animal facility. During the entire course of the study, mice were fed with Lab Diet 5001 (Purina Mills, LLC, Gray Summit, MO).
Oral infection of the mice was carried out essentially as described by Deap et al. ([18]). Prior to infection, mice were subjected to a combined antibiotic treatment for 10 days by providing animals with water ad libitum containing 800 μg/ml sulfamethoxazole (MP Biomedical, Solon, OH) and 400 μg/ml trimethoprim (Sigma, St. Louis, MO). Four days after the conclusion of the antibiotic treatment, mice were infected by oral gavage with 10^9 CFU of S. gordonii suspended in 2% carboxymethylcellulose (CMC; MP Biomedical) in sterile PBS using a 2.25-mm feeding needle (Popper and Son, Inc., New Hyde Park, NY). Infections were conducted every other day for a period of 10 days. Subsequently, mice were infected with 10^9 CFU P. gingivalis suspended in 2% CMC in PBS alone or in 2% CMC in PBS containing the small-molecule inhibitors every other day for 10 days. After the last infection with P. gingivalis, the mice were rested for 47 days and then euthanized by carbon dioxide asphyxiation.
To obtain the mouse skulls, the heads were removed and autoclaved for 15 min to remove flesh and musculature. The defleshed skulls were then immersed in 3% hydrogen peroxide overnight at room temperature to remove any remaining flesh. The skulls were submerged in deionized water to remove residual hydrogen peroxide, soaked in 1% bleach solution for 30 sec, sonicated at 14 V for 1 min, and washed again with deionized water. Samples were brushed using toothpaste, sonicated again in 1% bleach for an additional 30 sec at 14 V, and washed with water. The cleaned skulls were stained by immersion in 1% methylene blue for 15 sec, followed by washing with water until the excess dye was removed.
To measure alveolar bone loss, a dissecting microscope fitted with a video imaging marker measurement system (model VIA-170K; Fryer) was used. Bone loss was determined by measuring the distance between the alveolar bone crest (ABC) and cemento-enamel junction (CEJ) at eight sites on the buccal sides of both left and right maxillary molars. […] Data were analyzed using one-way analysis of variance (ANOVA; Graph Pad Prism, La Jolla, CA), and a pairwise parametric analysis of variance using a Bonferroni multiple-comparison posttest was used to determine the statistical difference among the individual mouse groups. A P value of ≤0.05 was considered statistically significant.

HL60 cells = experiment: LDH release (CytoTox 96); format: cell-based, human; details: 18 h
Description: (§1) The CytoTox 96 nonradioactive cytotoxicity assay (Promega Inc. Madison, WI) was used to determine extracellular lactate dehydrogenase activity (LDH) in TIGK, J774A.1, and HL60 cell cultures treated with the test compounds. […] After an 18-h incubation, the cell supernatant was collected by centrifugation at 250 × g for 4 min, and 50 μl of cell free supernatant was transferred into wells of a fresh 96-well microtiter plate. Subsequently, 50 μl of the LDH substrate was added in each well and incubated at room temperature for 30 min. Reactions were stopped by adding 50 μl of the stop solution according to the manufacturer’s protocol, and the endpoint was measured by determining optical density at 490 nm. Cells treated with culture medium containing 0.1% DMSO or with medium alone served as negative controls, and cells incubated with 15-μl lysis buffer (supplied by manufacturer) for 1 h served as a positive control for lysis. All samples were tested in triplicate.

TIGK cells [1] = experiment: LDH release (CytoTox 96); format: cell-based, human; details: 18 h
Description: as §1

J774A.1 cells [2] = experiment: LDH release (CytoTox 96); format: cell-based, mouse; details: 18 h
Description: as §1

TIGK cells [3] = experiment: total cellular ATP (CellTiterGlo); format: cell-based, human; details: 18 h, versus negative controls
Description: To determine the metabolic activity of cells, the total cellular ATP level was measured in cell culture samples using the CellTiterGlo reagent (Promega Inc. Madison, WI). Cells were grown as described above in the presence of the desired concentration of compounds. The spent medium was decanted, and cells were washed three times with PBS and subsequently incubated with 100 μl of the CellTiterGlo substrate. To facilitate the reaction, plates were incubated at room temperature for 2 min with shaking and for an additional 10 min without shaking. Total light production was measured using a Victor 3 multilabel plate reader (PerkinElmer).

TIGK cells [4] = details: 18 h
Description: (§2) The mouse macrophage cell line J774A.1 was grown in Dulbecco’s modified Eagle medium (DMEM) (Thermo Fisher Scientific, Waltham, MA) supplemented with 4.5 g/ml glucose, 10% fetal bovine serum (FBS), and 100 U/ml penicillin-streptomycin (Sigma-Aldrich, St. Louis, MO). HL60 (ATCC CCL240) cells were obtained from the American Type Culture Collection and cultured in Iscove’s modified Dulbecco’s medium (Sigma-Aldrich) supplemented with 20% fetal bovine serum (FBS) (Sigma-Aldrich).
(§3) The apoptotic activity of the compounds was determined using the phycoerythrin (PE) annexin V/dead cell apoptosis kit with Sytox green for flow cytometry (Invitrogen, Carlsbad, CA). Cells were grown in 12-well flat-bottom microtiter plates at an initial density 2 × 10^5 cells in 1.5-ml medium per well for 24 h. Following the incubation period, spent medium was replaced with fresh medium containing the desired concentration of the test compound and incubated for another 18 h. After trypsinization, cells were harvested by centrifuging at 250 × g for 4 min, and the cell pellet was suspended in 100 μl of binding buffer supplemented with 1 μl Sytox and 5 μl annexin V, followed by incubation at 37°C for 15 min. Samples were then diluted by adding 400-μl binding buffer, and flow cytometry was performed using a FACScalibur flow cytometer (Becton, Dickinson, Franklin Lakes, NJ), measuring the fluorescence emissions at 530 nm and 575 nm.

J774A.1 cells [5] = details: 18 h
Description: as §2, §3

Structure (SMILES) | alveolar bone loss relative to sham-infected mice (P. gingivalis virulence) | alveolar bone loss versus infected untreated mice (P. gingivalis virulence) | cellular ATP levels (TIGK cells [3]) | Early apoptosis (%) (TIGK cells [4]; 5 μM) | Late apoptosis/necrosis (%) (TIGK cells [4]; 5 μM) | Live cells (%) (TIGK cells [4]; 5 μM) | Early apoptosis (%) (TIGK cells [4]; 20 μM) | Late apoptosis/necrosis (%) (TIGK cells [4]; 20 μM) | Live cells (%) (TIGK cells [4]; 20 μM) | Early apoptosis (%) (TIGK cells [4]; 40 μM) | Late apoptosis/necrosis (%) (TIGK cells [4]; 40 μM) | Live cells (%) (TIGK cells [4]; 40 μM) | Early apoptosis (%) (J774A.1 cells [5]; 5 μM) | Late apoptosis/necrosis (%) (J774A.1 cells [5]; 5 μM) | Live cells (%) (J774A.1 cells [5]; 5 μM) | Early apoptosis (%) (J774A.1 cells [5]; 20 μM) | Late apoptosis/necrosis (%) (J774A.1 cells [5]; 20 μM) | Live cells (%) (J774A.1 cells [5]; 20 μM) | Late apoptosis/necrosis (%) (J774A.1 cells [5]; 40 μM) | Live cells (%) (J774A.1 cells [5]; 40 μM) | further results
Cl.N=c1n(CCN2CCCCC2)c2ccccc2n1CC(O)COc1ccc(Cl)cc1 (stereo not drawn) [N7, 1-(4-chlorophenoxy)-3-{2-imino-3-[2-(piperidin-1-yl)ethyl]-2,3-dihydro-1H-1,3-benzodiazol-1-yl}propan-2-ol hydrochloride] | modest increase in bone loss relative to the sham-infected group | significant reduction in alveolar bone loss | significantly reduced cellular ATP levels | 2.4% | 8.3% | 86.8% | 1.0% | 14.9* % | 74.5% | 5.9% | 40.7* % | 48.3% | 2.5% | 5.5% | 83.9% | 16.9% | 46.6% | 33.4% | 38.0% | 36.2% | overt signs of distress or toxicity in treated mice (P. gingivalis virulence; transient exposure (∼20 min) during infection): did not exhibit any overt signs of distress or toxicity; LDH release (HL60 cells; HL-60 cells, 20 μM and 40 μM): significant increases; LDH release (TIGK cells [1]; 40 μM): significant increase in LDH release; LDH release (J774A.1 cells [2]; J774A.1 cells, 20 μM and 40 μM): significant increases; Early apoptosis (%) (J774A.1 cells [5]; 40 μM): 24.9%
Cc1cc([C@H]2CCCN(CC(=O)NC3(C#N)CCCC3)C2)n[nH]1 [V8, N-(1-cyanocyclopentyl)-2-[3-(5-methyl-1H-pyrazol-3-yl)piperidin-1-yl] acetamide] | modest increase in bone loss relative to the sham-infected group | significant reduction in alveolar bone loss | did not significantly differ from the negative controls | 3.1% | 4.2% | 91.6% | 2.1% | 3.5% | 92.8% | 2.4% | 3.4% | 92.8% | 1.1% | 8.3% | 85.1% | 0.9% | 8.0% | 83.4% | 9.1% | 84.3% | LDH release (HL60 cells; HL-60 cells, 5, 20 and 40 μM): no significant effect; LDH release (TIGK cells [1]; versus negative controls): did not significantly differ from the negative controls; LDH release (J774A.1 cells [2]; J774A.1 cells, 5, 20 and 40 μM): no significant effect
O=C(Nc1ccccc1O)c1cccc(N2C(=O)c3ccc(C(=O)Nc4ccccc4O)cc3C2=O)c1 [N17, N-(2-hydroxyphenyl)-2-{3-[(2-hydroxyphenyl)carbamoyl]phenyl}-1,3-dioxo-2,3-dihydro-1H-isoindole-5-carboxamide] | not significantly different from sham-infected animals | significant reduction in alveolar bone loss | did not significantly differ from the negative controls | 2.9% | 4.2% | 90.7% | 2.4% | 3.6% | 92.4% | 1.5% | 5.1% | 91.6% | 1.0% | 6.1% | 87.8% | 1.0% | 6.9% | 85.3% | 6.6% | 87.3% | LDH release (HL60 cells; HL-60 cells, 5, 20 and 40 μM): no significant effect; LDH release (TIGK cells [1]; versus negative controls): did not significantly differ from the negative controls; LDH release (J774A.1 cells [2]; J774A.1 cells, 5, 20 and 40 μM): no significant effect; Early apoptosis (%) (J774A.1 cells [5]; 40 μM): 1.2%
